In patent US9399636B2, “Substituted dipyridylamines and uses thereof” (Genentech, Inc., priority 2012, dated 2016) one finds Ki data, which are given here for 24 compounds.

The assay deals with T1, DLK (Homo sapiens, UniProt Q12852).
T1 construct: N-terminally GST-tagged DLK (catalytic domain amino acid 1-520) (Carna Bioscience); GST (N); purchased Carna Bioscience
T1 sequence (Q12852 1-520): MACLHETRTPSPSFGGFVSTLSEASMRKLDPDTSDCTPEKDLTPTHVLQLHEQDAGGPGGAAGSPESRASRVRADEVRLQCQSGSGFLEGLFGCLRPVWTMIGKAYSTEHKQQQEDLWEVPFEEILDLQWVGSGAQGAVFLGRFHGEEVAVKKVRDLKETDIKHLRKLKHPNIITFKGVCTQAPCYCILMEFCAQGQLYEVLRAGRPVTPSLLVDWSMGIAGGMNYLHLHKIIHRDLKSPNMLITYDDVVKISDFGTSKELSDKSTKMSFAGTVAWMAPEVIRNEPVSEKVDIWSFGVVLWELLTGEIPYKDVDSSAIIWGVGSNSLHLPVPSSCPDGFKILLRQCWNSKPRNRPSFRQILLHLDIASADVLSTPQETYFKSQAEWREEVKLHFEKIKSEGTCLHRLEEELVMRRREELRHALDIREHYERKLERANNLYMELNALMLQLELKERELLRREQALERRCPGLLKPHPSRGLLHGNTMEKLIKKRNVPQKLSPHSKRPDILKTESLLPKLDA
The assay can be described thus: DLK TR-FRET assay. Type of assay: biochemical. The conditions noted are these: 5 nM GST-tagged DLK (catalytic domain amino acid 1-520), 40 nM HIS-tagged MKK4 K131M substrate, 30 μM ATP, 60 minutes. The procedure:
DLK TR-FRET assay: DLK kinase reactions (20 μL) containing 5 nM N-terminally GST-tagged DLK (catalytic domain amino acid 1-520) (Carna Bioscience), 40 nM N-terminally HIS-tagged MKK4 K131M substrate, and 30 μM ATP in kinase reaction buffer (50 mM HEPES, pH 7.5, 0.01% Triton X-100, 0.01% Bovine γ-Globulins, 2 mM DTT, 10 mM MgCl2 and 1 mM EGTA), and testing compound 1:3 serial diluted starting at 20 uM were incubated at ambient temperature for 60 minutes in 384 well OptiPlate (Perkin Elmer). To quench kinase reactions and detect phosphorylated MKK4, 15 μL of TR-FRET antibody mixture containing 2 nM anti-phosphorylated MKK4 labeled with Europium cryptate (Cisbio) and 23 nM anti-HIS labeled with D2 (Cisbio) in detection buffer (25 mM Tris pH 7.5, 100 mM NaCl, 100 mM EDTA, 0.01% Tween-20, and 200 mM KF) was added to the reaction mixture. The detection mixture was incubated for 3 hours at ambient temperature and the TR-FRET was detected with an EnVision multilabel plate reader (Perkin-Elmer) using the LANCE/DELFIA Dual Enh label from Perkin-Elmer (excitation filter: UV2 (TRF) 320 and emission filters: APC 665 and Europium 615).
For orientation: In TR-FRET formats the signal depends on donor and acceptor labels being close together.

What is called Ki is the equilibrium dissociation constant of an inhibitor or competing ligand from its target. Low readings indicate a stronger hold on the target, high ones a looser hold on the target. As to `COC1CN(c2cc(C3(C#N)CCNCC3)cc(Nc3cc(C(F)(F)F)ccn3)n2)C1` [Example 19, 6′-(3-Methoxy-azetidin-1-yl)-2′-(4-trifluoromethyl-pyridin-2-ylamino)-2,3,5,6-tetrahydro-1H-[4,4′]bipyridinyl-4-carbonitrile], the Ki was 5.1 nM. In other words, the single-digit nanomolar range.

As for `FC(F)c1ccnc(Nc2cc(C3CN(CC(F)(F)F)C3)cc(Cl)n2)c1` [Example 20, {6-Chloro-4-[1-(2,2,2-trifluoro-ethyl)-azetidin-3-yl]-pyridin-2-yl}-(4-difluoromethyl-pyridin-2-yl)-amine], affinity was put at a Ki of 110 nM.

In turn, `COc1cc(C2CCN(C(C)=O)CC2)cc(Nc2cc(C#N)ccn2)n1` [Example 21, 2-(1′-Acetyl-6-methoxy-1′,2′,3′,4′,5′,6′-hexahydro-[4,4′]bipyridinyl-2-ylamino)-isonicotinonitrile] displayed a Ki of 12 nM.

In the case of `CC(=O)N1CCC(c2cc(Nc3cc(C#N)ccn3)nc(OC(C)C)c2)CC1` [Example 22, 2-(1′-Acetyl-6-isopropoxy-1′,2′,3′,4′,5′,6′-hexahydro-[4,4′]bipyridinyl-2-ylamino)-isonicotinonitrile], the inhibition constant Ki stood at 2.2 nM.

Compound `N#CC1(c2cc(Nc3cc(C(F)(F)F)ccn3)nc(N3CC(F)C3)c2)CCNCC1` [Example 23, 6′-(3-Fluoro-azetidin-1-yl)-2′-(4-trifluoromethyl-pyridin-2-ylamino)-2,3,5,6-tetrahydro-1H-[4,4′]bipyridinyl-4-carbonitrile] yielded a Ki of 0.32 nM. This Ki lies about 6.9-fold lower than the previous one.

`N#Cc1ccnc(Nc2cc(C3CN(C4COC4)C3)cc(Cl)n2)c1` [Example 24, 2-[6-Chloro-4-(1-oxetan-3-yl-azetidin-3-yl)-pyridin-2-ylamino]-isonicotinonitrile] had a Ki of 140 nM. Against the preceding compound, the Ki is about 440-fold higher.

`FC(F)c1ccnc(Nc2cc(C3CCN(C4COC4)CC3)cc(C3CC3)n2)c1` [Example 25, (6-Cyclopropyl-1′-oxetan-3-yl-1′,2′,3′,4′,5′,6′-hexahydro-[4,4′]bipyridinyl-2-yl)-(4-difluoromethyl-pyridin-2-yl)-amine] came in with an inhibition constant Ki of 0.84 nM. Against the preceding compound, the Ki is about 170-fold lower.

`CCc1cc(C2CCN(C3COC3)CC2)cc(Nc2cc(C(F)F)ccn2)n1` [Example 26, (4-Difluoromethyl-pyridin-2-yl)-(6-ethyl-1′-oxetan-3-yl-1′,2′,3′,4′,5′,6′-hexahydro-[4,4′]bipyridinyl-2-yl)-amine]: the Ki came to 21 nM.

In the case of `Cc1cc(C2CCN(C3COC3)CC2)cc(Nc2cc(C(F)F)ccn2)n1` [Example 27, (4-Difluoromethyl-pyridin-2-yl)-(6-methyl-1′-oxetan-3-yl-1′,2′,3′,4′,5′,6′-hexahydro-[4,4′]bipyridinyl-2-yl)-amine], the affinity corresponds to a Ki of 100 nM. This Ki is about 4.8-fold higher than that of the compound before.

The compound `N#Cc1ccnc(Nc2cc(C3CCN(C4COC4)CC3)cc(C3CC3)n2)c1` [Example 28, 2-(6-Cyclopropyl-1′-oxetan-3-yl-1′,2′,3′,4′,5′,6′-hexahydro-[4,4′]bipyridinyl-2-ylamino)-isonicotinonitrile] yielded a Ki of 1.4 nM.

`CCc1cc(C2CCN(C3COC3)CC2)cc(Nc2cc(C#N)ccn2)n1` [Example 29, 2-(6-Ethyl-1′-oxetan-3-yl-1′,2′,3′,4′,5′,6′-hexahydro-[4,4′]bipyridinyl-2-ylamino)-isonicotinonitrile] had a Ki of 18 nM.

Regarding `C[C@@H]1CCCN1c1cc(C2(C#N)CCN(C3COC3)CC2)cc(Nc2cc(C#N)ccn2)n1` [Example 30, 2′-(4-Cyano-pyridin-2-ylamino)-6′-((R)-2-methyl-pyrrolidin-1-yl)-1-oxetan-3-yl-2,3,5,6-tetrahydro-1H-[4,4′]bipyridinyl-4-carbonitrile], the Ki came to 0.17 nM.

With `N#Cc1ccnc(Nc2cc(C3(C#N)CCNCC3)cc(N3CCC(F)(F)C3)n2)c1` [Example 31, 2′-(4-Cyano-pyridin-2-ylamino)-6′-(3,3-difluoro-pyrrolidin-1-yl)-2,3,5,6-tetrahydro-1H-[4,4′]bipyridinyl-4-carbonitrile], the Ki was 0.17 nM. This counts as sub-nanomolar.

For the compound `N#Cc1ccnc(Nc2cc(C3CN(CC(F)(F)F)C3)cc(Cl)n2)c1` [Example 32, 2-{6-Chloro-4-[1-(2,2,2-trifluoro-ethyl)-azetidin-3-yl]-pyridin-2-ylamino}-isonicotinonitrile], affinity was put at a Ki of 220 nM.

Compound `C[C@@H]1CCCN1c1cc(C2(C#N)CCN(C)CC2)cc(Nc2cc(C#N)ccn2)n1` [Example 33, 2′-(4-Cyano-pyridin-2-ylamino)-1-methyl-6′-((R)-2-methyl-pyrrolidin-1-yl)-2,3,5,6-tetrahydro-1H-[4,4′]bipyridinyl-4-carbonitrile] showed a Ki of 0.17 nM.

For the compound `N#Cc1ccnc(Nc2cc(C3(C#N)CCNCC3)cc(N3CC(F)C3)n2)c1` [Example 34, 2′-(4-Cyano-pyridin-2-ylamino)-6′-(3-fluoro-azetidin-1-yl)-2,3,5,6-tetrahydro-1H-[4,4′]bipyridinyl-4-carbonitrile], the Ki was 1.9 nM. This Ki lies about 11-fold higher than the previous one.

`N#Cc1ccnc(Nc2cc(C3(C#N)CCN(C4COC4)CC3)cc(N3CC4CC4C3)n2)c1` (stereo not drawn) [Example 35, 6′-(3-Aza-bicyclo[3.1.0]hex-3-yl)-2′-(4-cyano-pyridin-2-ylamino)-1-oxetan-3-yl-2,3,5,6-tetrahydro-1H-[4,4′]bipyridinyl-4-carbonitrile] had a Ki of 0.8 nM. Compared with the last compound, the Ki is about 2.4-fold lower.

Compound `CN1CCC(C#N)(c2cc(Nc3cc(C#N)ccn3)nc(N3CC4CC4C3)c2)CC1` (stereo not drawn) [Example 36, 6′-(3-Aza-bicyclo[3.1.0]hex-3-yl)-2′-(4-cyano-pyridin-2-ylamino)-1-methyl-2,3,5,6-tetrahydro-1H-[4,4′]bipyridinyl-4-carbonitrile] returned a Ki of 0.17 nM.

On to `N#Cc1ccnc(Nc2cc(C3(C#N)CCNCC3)cc(N3CC(F)(F)C3)n2)c1` [Example 37, 2′-(4-Cyano-pyridin-2-ylamino)-6′-(3,3-difluoro-azetidin-1-yl)-2,3,5,6-tetrahydro-1H-[4,4′]bipyridinyl-4-carbonitrile], for which affinity was put at a Ki of 2.5 nM. Compared with the last compound, the Ki is about 15-fold higher.

`N#Cc1ccnc(Nc2cc(C3(C#N)CCNCC3)cc(N3CCC3)n2)c1` [Example 38, 6′-Azetidin-1-yl-2′-(4-cyano-pyridin-2-ylamino)-2,3,5,6-tetrahydro-1H-[4,4′]bipyridinyl-4-carbonitrile] displayed a Ki of 2.2 nM.

On to `C[C@@H]1CCCN1c1cc(C2(C#N)CCNCC2)cc(Nc2cc(C#N)ccn2)n1` [Example 39, 2′-(4-Cyano-pyridin-2-ylamino)-6′-((R)-2-methyl-pyrrolidin-1-yl)-2,3,5,6-tetrahydro-1H-[4,4′]bipyridinyl-4-carbonitrile], for which the Ki is 0.17 nM.

Take `N#Cc1ccnc(Nc2cc(C3(C#N)CCNCC3)cc(N3CC4CC4C3)n2)c1` (stereo not drawn) [Example 40, 6′-(3-Aza-bicyclo[3.1.0]hex-3-yl)-2′-(4-cyano-pyridin-2-ylamino)-2,3,5,6-tetrahydro-1H-[4,4′]bipyridinyl-4-carbonitrile]: the affinity, expressed as Ki, was 0.17 nM. This counts as sub-nanomolar.

As to `CC(C)(C)OC(=O)N1CC(c2cc(Cl)nc(Nc3cc(C#N)ccn3)c2)C1` [Example 41, 3-[2-Chloro-6-(4-cyano-pyridin-2-ylamino)-pyridin-4-yl]-azetidine-1-carboxylic acid tert-butyl ester], the affinity, expressed as Ki, was 56 nM.

Compound `O=C1CCCN1c1cc(C2CCN(C3COC3)CC2)cc(Nc2cc(C(F)F)ccn2)n1` [Example 42, 1-[6-(4-Difluoromethyl-pyridin-2-ylamino)-1′-oxetan-3-yl-1′,2′,3′,4′,5′,6′-hexahydro-[4,4′]bipyridinyl-2-yl]-pyrrolidin-2-one] displayed a Ki of 6.4 nM.
